# Experimental data reported in patent publication US5356916A, “1,2,4-oxadiazole derivatives having monoamine oxidase B enzyme-inhibitory activity” (Wakamoto Pharmaceutical Co., Ltd., priority 1991, dated 1994).
# pIC50: −log10 of the molar value. Where two headings read alike, the source gives them in different places.
# Columns and labels:
# MAO-A = target: T1, MAO-A (Rattus norvegicus, UniProt P21396); assay: In vitro inhibition of monoamine oxidase A (oxygen electrode, rat liver mitochondria, substrate serotonin); assay type: biochemical
# T1 construct: mitochondria prepared from the liver of rats; from tissue; host or cells: rat liver mitochondria
# T1 sequence (P21396 1-526): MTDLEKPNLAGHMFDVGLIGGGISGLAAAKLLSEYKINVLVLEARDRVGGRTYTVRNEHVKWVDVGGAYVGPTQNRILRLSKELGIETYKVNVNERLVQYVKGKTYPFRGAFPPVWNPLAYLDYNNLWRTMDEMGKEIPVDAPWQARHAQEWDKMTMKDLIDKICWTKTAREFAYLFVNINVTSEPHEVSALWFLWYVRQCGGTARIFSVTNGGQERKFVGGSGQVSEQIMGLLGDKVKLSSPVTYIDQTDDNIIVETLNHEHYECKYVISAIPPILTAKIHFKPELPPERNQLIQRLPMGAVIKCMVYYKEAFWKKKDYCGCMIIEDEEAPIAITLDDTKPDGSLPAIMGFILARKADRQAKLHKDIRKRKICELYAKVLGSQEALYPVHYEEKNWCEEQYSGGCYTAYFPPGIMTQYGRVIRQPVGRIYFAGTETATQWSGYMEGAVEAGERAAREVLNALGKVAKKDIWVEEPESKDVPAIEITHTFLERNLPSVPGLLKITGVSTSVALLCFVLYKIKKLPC
# Procedure: (§1) The MAO-inhibitory activity of the compounds of the present invention was determined according to an MAO-inhibitory activity determining method using the oxygen electrode disclosed in K. F. Tipton et al., Biochem. J., 1968,108, pp. 95-99.
# (§2) A potassium phosphate buffer solution of mitochondria prepared from the liver of rats was preincubated at 37° C. with or without a compound of the present invention and then a substrate was added to the mixture to thus initiate the reaction at that temperature while the dissolved oxygen-consuming reaction due to MAO activity in the reaction solution was monitored by the oxygen electrode. In this respect, the substrates used were serotonin (5-HT) for the MAO-A activity determination and benzylamine (BA) for the MAO-B activity determination. The MAO-inhibitory activity was evaluated in terms of an IC5.sbsb.0 value which is the concentration of a compound tested required for reducing the rate of oxygen-consuming reaction performed in the presence of the compound to 50% of that of the reaction performed in the absence of the compound.
# MAO-B = target: T2, MAO-B (Rattus norvegicus, UniProt P19643); assay: In vitro inhibition of monoamine oxidase B (oxygen electrode, rat liver mitochondria, substrate benzylamine); assay type: biochemical; conditions: for MAO-A/MAO-B: ratio of IC50 values MAO-A/MAO-B
# T2 construct: mitochondria prepared from the liver of rats; from tissue; host or cells: rat liver mitochondria
# T2 sequence (P19643 1-520): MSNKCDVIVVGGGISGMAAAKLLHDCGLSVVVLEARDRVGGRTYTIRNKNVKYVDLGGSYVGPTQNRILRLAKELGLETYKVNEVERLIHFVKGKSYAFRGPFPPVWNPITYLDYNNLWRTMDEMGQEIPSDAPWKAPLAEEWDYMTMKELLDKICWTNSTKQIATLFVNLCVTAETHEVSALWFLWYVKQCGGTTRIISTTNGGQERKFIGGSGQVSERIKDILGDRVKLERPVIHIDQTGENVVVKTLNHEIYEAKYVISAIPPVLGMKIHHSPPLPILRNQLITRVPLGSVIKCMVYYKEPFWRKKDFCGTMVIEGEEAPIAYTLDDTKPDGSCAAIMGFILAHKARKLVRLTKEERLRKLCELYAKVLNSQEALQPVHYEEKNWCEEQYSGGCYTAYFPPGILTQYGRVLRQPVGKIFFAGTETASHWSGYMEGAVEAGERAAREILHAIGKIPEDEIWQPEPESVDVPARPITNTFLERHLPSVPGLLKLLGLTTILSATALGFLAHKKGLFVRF
# Procedure: as §1, §2
# [1] = rat liver mitochondria, 37° C., preincubated, substrate serotonin (5-HT), read-out: IC50 MAO-A
# [2] = rat liver mitochondria, 37° C., preincubated, substrate benzylamine (BA), read-out: IC50 MAO-B
SMILES,pIC50 (MAO-A; [1]),pIC50 (MAO-B; [2]),MAO-A/MAO-B (MAO-B),pIC50 (MAO-A),pIC50 (MAO-B)
"CCc1nc(-c2ccc(OCCCn3ccnc3)cc2)no1 [Example 1, 3-[4-[3-(1H-imidazol-1-yl)propoxy]phenyl]-5-ethyl-1,2,4-oxadiazole]",3.70,6.52,670,,
"ClC(Cl)(Cl)c1nc(-c2ccc(OCCCn3ccnc3)cc2)no1 [Example 2, 3-[4-[3-(1H-imidazol-1-yl)propoxy]phenyl]-5-tri chloromethyl-1,2,4-oxadiazole]",3.70,7.52,6700,,
"CCCc1nc(-c2ccc(OCCCn3ccnc3)cc2)no1 [Example 3, 3-[4-[3-(1H-imidazol-1-yl)propoxy]phenyl]-5-propyl-1,2,4-oxadiazole]",3.70,6.00,200,,
"c1cn(CCCOc2ccc(-c3noc(C4CC4)n3)cc2)cn1 [Example 4, 3-[4-[3-(1H-imidazol-1-yl)propoxy]phenyl]-5-cyclo-propyl-1,2,4-oxadiazole]",4.00,5.70,50,,
"c1ccc(-c2nc(-c3ccc(OCCCn4ccnc4)cc3)no2)cc1 [Example 5, 3-[4-[3-(1H-imidazol-1-yl)propoxy]phenyl]-5-phenyl-1,2,4-oxadiazole]",4.00,4.30,2,,
"CCc1nc(-c2ccc(OCCCn3ccnc3C)cc2)no1 [Example 6, 3-[4-[3-(2-methyl-1H-imidazol-1-yl)propoxy]phenyl]-5-ethyl-1,2,4-oxadiazole]",3.82,3.82,1,,
"CCc1nc(-c2ccc(OCCCn3cnc4ccccc43)cc2)no1 [Example 7, 3-[4-[3-(1H-benzimidazol-1-yl)propoxy]phenyl]-5-ethyl-1,2,4-oxadiazole]",3.82,3.80,0.9,,
"CCc1nc(-c2ccc(OCCCN(CC)CC)cc2)no1 [Example 8, 3-[4-(3-diethylaminopropoxy)phenyl]-5-ethyl-1,2,4-oxadiazole]",4.00,4.60,4,,
"CCCN(CCC)CCCOc1ccc(-c2noc(-c3ccccc3)n2)cc1 [Example 9, 3-[4-(3-dipropylaminopropoxy)phenyl]-5-phenyl-1,2,4-oxadiazole]",4.00,4.30,2,,
"CCc1nc(-c2ccc(OCCCN3C(=O)c4ccccc4C3=O)cc2)no1 [Example 10, 3-[4-(3-phthalimidopropoxy)phenyl]-5-ethyl-1,2,4-oxadiazole]",4.00,4.00,1,,
"CCc1nc(-c2ccc(OCCCN3CCOCC3)cc2)no1 [Example 11, 3-[4-(3-morpholinopropoxy)phenyl]-5-ethyl-1,2,4-oxadiazole]",3.70,4.00,2,,
"CCc1nc(-c2ccc(OCCCN3CCCCC3)cc2)no1 [Example 12, 3-[4-(3-piperidinopropoxy)phenyl]5-ethyl-1,2,4-oxadiazole]",4.00,4.00,1,,
"CCc1nc(-c2ccc(OCCCN3CCN(C)CC3)cc2)no1 [Example 13, 3-[4-[3-(4-methylpiperazinyl)propoxy]phenyl]-5-ethyl-1,2,4-oxadiazole]",4.00,4.00,1,,
"CCc1nc(-c2ccc(OCCCc3cccnc3)cc2)no1 [Example 14, 3-[4-[3-(3-pyridyl)propoxy]phenyl]-5-ethyl-1,2,4-oxadiazole]",4.00,4.70,5,,
"CCc1nc(-c2ccc(OCCCc3ccccc3)cc2)no1 [Example 15, 3-[4-(3-phenylpropoxy)phenyl]-5-ethyl-1,2,4-oxadiazole]",3.70,3.70,1,,
"CCCOc1ccc(-c2noc(CC)n2)cc1 [Example 16, 3-(4-propoxy)phenyl-5-ethyl-1,2,4-oxadiazole]",4.32,5.00,4.8,,

SMILES,pIC50 (MAO-A; [1]),pIC50 (MAO-B; [2]),MAO-A/MAO-B (MAO-B),pIC50 (MAO-A),pIC50 (MAO-B)
"O=C1CCCN1CCCOc1ccc(-c2noc(-c3ccccc3)n2)cc1 [Example 17, 3-[4-[3-(2-oxopyrrolidin-1-yl)propoxy]phenyl]-5-phenyl-1,2,4-oxadiazole]",4.00,4.00,1,,
"CCc1nc(-c2ccc(OCCn3ccnc3)cc2)no1 [Example 18, 3-[4-[2-(1H-imidazol-1-yl)ethoxy]phenyl]-5-ethyl-1,2,4-oxadiazole]",4.05,4.22,1.5,,
"CCc1nc(-c2ccc(OCc3ccccc3)cc2)no1 [Example 19, 3-(4-benzyloxy)phenyl-5-ethyl-1,2,4-oxadiazole]",4.00,5.10,13,,
"ClC(Cl)(Cl)c1nc(-c2ccc(OCc3ccccc3)cc2)no1 [Example 20, 3-(4-benzyloxy)phenyl-5-trichloromethyl-1,2,4-oxadiazole]",,,11,4.00,5.02
"FC(F)(F)c1nc(-c2ccc(OCCCn3ccnc3)cc2)no1 [Example 21, 3-[4-[3-(1H-imidazol-1-yl)propoxy]phenyl]-5-trifluoromethyl-1,2,4-oxadiazole]",3.70,7.52,6700,,
"FC(F)(F)C(F)(F)c1nc(-c2ccc(OCCCn3ccnc3)cc2)no1 [Example 22, 3-[4-[3-(1H-imidazol-1-yl)propoxy]phenyl]-5-penta-fluoroethyl-1,2,4-oxadiazole]",4.00,7.05,1100,,
"FC(F)(F)C(F)(F)C(F)(F)c1nc(-c2ccc(OCCCn3ccnc3)cc2)no1 [Example 23, 3-[4-[3-(1H-imidazol-1-yl)propoxy]phenyl]-5-hepta-fluoropropyl-1,2,4-oxadiazole]",,,21,4.00,5.33
"Cc1nc(-c2ccc(OCCCn3ccnc3)cc2)no1 [Example 24, 3-[4-[3-(1H-imidazol-1-yl)propoxy]phenyl]-5-methyl-1,2,4-oxadiazole]",3.26,5.62,230,,
"CCCN(CCC)CCCOc1ccc(-c2noc(C)n2)cc1 [Example 25, 3-[4-(3-dipropylaminopropoxy)phenyl]-5-methyl-1,2,4-oxadiazole]",4.00,6.00,100,,
"Cc1nc(-c2ccc(OCc3cccnc3)cc2)no1 [Example 26, 3-(4-(3-pyridylmethyloxy)phenyl]-5-methyl-1,2,4-oxadiazole]",4.00,4.52,3.3,,
"Cc1nc(-c2ccc(OCc3ccncc3)cc2)no1 [Example 27, 3-[4-(4-pyridylmethyloxy)phenyl]-5-methyl-1,2,4-oxadiazole]",3.80,4.60,6.4,,
"CCCOc1ccc(-c2noc(C)n2)cc1 [Example 28, 3-(4-propoxy)phenyl-5-methyl-1,2,4-oxadiazole]",4.74,4.60,0.7,,
"Cc1nc(-c2ccc(OCCCc3ccccc3)cc2)no1 [Example 29, 3-[4-(3-phenylpropoxy)phenyl]-5-methyl-1,2,4-oxadiazole]",3.96,4.66,5,,
"Cc1nc(-c2ccc(OCc3ccccc3)cc2)no1 [Example 30, 3=(4-benzyloxy)phenyl-5-methyl-1,2,4-oxadiazole]",4.30,5.32,10,,
"Cc1nc(-c2ccc(OCc3cccc(Cl)c3)cc2)no1 [Example 31, 3-[4-(3-chlorobenzyloxy)phenyl]-5-methyl-1,2,4-oxadiazole]",3.70,5.52,67,,
